# Assay results published in article PMC5050400 (Current Neuropharmacology, 2016).
# Changes are numbered by the printed parent chain. Where “and” joins values, the source holds several entries; their conditions need not be identical. Identical values can stand only once. Like-named read-outs stand apart in the source and are kept apart here.
# What was measured:
# β3(Y143W) receptor = settings: β3(Y143W) homomeric receptor compared with wild-type; cited from earlier work
# [1] = biological target: T1, α1β3(M286W) GABAA receptor (Homo sapiens, UniProt P14867+P28472, M311W); experiment: Two-electrode voltage clamp activation of α1β3; assay type: cell-based; settings: for Po,max^est / nH / d: α1β3(M286W); for d: KO/KC, MWC fit
# T1 sequence (P28472 26-473 M311W): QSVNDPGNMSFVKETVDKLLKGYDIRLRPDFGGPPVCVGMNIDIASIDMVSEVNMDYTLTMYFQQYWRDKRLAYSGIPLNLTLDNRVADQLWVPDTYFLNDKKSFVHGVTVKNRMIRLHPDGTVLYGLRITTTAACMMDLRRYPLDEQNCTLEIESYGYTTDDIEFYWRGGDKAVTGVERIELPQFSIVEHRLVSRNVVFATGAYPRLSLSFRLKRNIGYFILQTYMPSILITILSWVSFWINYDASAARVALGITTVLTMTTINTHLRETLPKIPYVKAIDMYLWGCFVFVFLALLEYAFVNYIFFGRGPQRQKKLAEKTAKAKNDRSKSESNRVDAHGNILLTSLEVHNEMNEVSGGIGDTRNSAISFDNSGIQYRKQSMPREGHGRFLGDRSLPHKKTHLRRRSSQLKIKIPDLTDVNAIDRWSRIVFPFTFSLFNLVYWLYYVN
# T1 sequence (P14867 28-456): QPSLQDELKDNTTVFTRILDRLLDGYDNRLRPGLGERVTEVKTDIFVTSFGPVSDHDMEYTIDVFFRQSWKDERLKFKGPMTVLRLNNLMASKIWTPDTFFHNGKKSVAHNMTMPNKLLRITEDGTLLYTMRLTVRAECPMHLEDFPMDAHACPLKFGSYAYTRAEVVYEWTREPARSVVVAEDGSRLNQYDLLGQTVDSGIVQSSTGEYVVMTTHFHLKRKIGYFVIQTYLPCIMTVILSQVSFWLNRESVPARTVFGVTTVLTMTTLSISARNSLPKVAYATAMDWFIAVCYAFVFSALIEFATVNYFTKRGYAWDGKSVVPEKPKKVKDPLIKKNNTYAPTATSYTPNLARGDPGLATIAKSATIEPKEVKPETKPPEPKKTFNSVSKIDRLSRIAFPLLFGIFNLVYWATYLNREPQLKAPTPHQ
# [2] = biological target: T2, α1β3(M286W+F221W) GABAA receptor (Homo sapiens, UniProt P14867+P28472, F246W/M311W); experiment: Two-electrode voltage clamp activation of α1β3; assay type: cell-based; settings: for Po,max^est / nH / d: α1β3(M286W+F221W); for d: KO/KC, MWC fit
# T2 sequence (P28472 26-473 F246W/M311W): T1 sequence (P28472 26-473 M311W) with F221W
# T2 sequence (P14867 28-456): T1 sequence (P14867 28-456)
# [3] = biological target: T3, α1β3(Q224W) GABAA receptor (Homo sapiens, UniProt P14867+P28472, Q249W); experiment: Two-electrode voltage clamp activation of α1β3; assay type: cell-based; settings: for Po,max^est / nH / d: α1β3(Q224W); for d: KO/KC, MWC fit
# T3 sequence (P28472 26-473 Q249W): T1 sequence (P28472 26-473 M311W) with Q224W, W286M
# T3 sequence (P14867 28-456): T1 sequence (P14867 28-456)
# [4] = biological target: T4, α1β3(Y143W) GABAA receptor (Homo sapiens, UniProt P14867+P28472, Y168W); experiment: Two-electrode voltage clamp activation of α1β3; assay type: cell-based; settings: for Po,max^est / nH / d: α1β3(Y143W); for d: KO/KC, MWC fit
# T4 sequence (P28472 26-473 Y168W): T1 sequence (P28472 26-473 M311W) with Y143W, W286M
# T4 sequence (P14867 28-456): T1 sequence (P14867 28-456)
# α1β3 GABAA receptor = biological target: T5, α1β3 GABAA receptor (Homo sapiens, UniProt P14867+P28472); assay type: cell-based; settings: for d / Po,max^est / nH: wild-type α1β3; for d: KO/KC, gating efficacy, MWC fit, n = 5 for propofol, 2 for GABA; for Po,max^est: estimated maximal open probability at saturating agonist; for nH: slope of concentration-response curve
# T5 sequence (P28472 26-473): T1 sequence (P28472 26-473 M311W) with W286M
# T5 sequence (P14867 28-456): T1 sequence (P14867 28-456)
# [5] = biological target: T6, α1β3(M286W+Y143W) GABAA receptor (Homo sapiens, UniProt P14867+P28472, M311W/Y168W); experiment: Two-electrode voltage clamp activation of α1β3; assay type: cell-based; settings: for Po,max^est / nH / d: α1β3(M286W+Y143W); for d: KO/KC, MWC fit
# T6 sequence (P28472 26-473 Y168W/M311W): T1 sequence (P28472 26-473 M311W) with Y143W
# T6 sequence (P14867 28-456): T1 sequence (P14867 28-456)
# [6] = biological target: T7, α1β3(F221W) GABAA receptor (Homo sapiens, UniProt P14867+P28472, F246W); experiment: Two-electrode voltage clamp activation of α1β3; assay type: cell-based; settings: for Po,max^est / nH / d: α1β3(F221W); for d: KO/KC, MWC fit
# T7 sequence (P28472 26-473 F246W): T1 sequence (P28472 26-473 M311W) with F221W, W286M
# T7 sequence (P14867 28-456): T1 sequence (P14867 28-456)
# [7] = biological target: T8, α1β3(M286W+Q224W) GABAA receptor (Homo sapiens, UniProt P14867+P28472, M311W/Q249W); experiment: cell-based
# T8 sequence (P28472 26-473 Q249W/M311W): T1 sequence (P28472 26-473 M311W) with Q224W
# T8 sequence (P14867 28-456): T1 sequence (P14867 28-456)
# α1β2γ2L GABAA receptors = settings: compared with propofol; cited from earlier work
Structure (SMILES),activation of the mutant receptor (β3(Y143W) receptor),"Po,max^est [1]",nH [1],d [1],"Po,max^est [2]",nH [2],d [2],"Po,max^est [3]",nH [3],d [3],"Po,max^est [4]",nH [4],d [4],d (α1β3 GABAA receptor),"Po,max^est (α1β3 GABAA receptor)",nH (α1β3 GABAA receptor),"Po,max^est [5]",nH [5],d [5],"Po,max^est [6]",also measured
"Cc1cccc(C)c1O [2,6-dimethylphenol]",unchanged,–,–,–,–,–,–,–,–,–,–,–,–,–,–,–,–,–,–,–,–
"NCCCC(=O)O [GABA, γ-aminobutyric acid]",–,0.94±0.01,1.8±0.2,0.005±0.002,1,1.1±0.1,0.07±0.05,0.24±0.03,1.0±0.1,0.06±0.01,1,1.7±0.1,0.02±0.001,0.02±0.001,0.65±0.04,1.5±0.1,0.96±0.09,0.8±0.1,0.08±0.05,1,"nH [6]: 1.5±0.1; d [6]: 0.03±0.02; Po,max^est ([7]; α1β3(M286W+Q224W)): 0.87±0.02; nH ([7]; α1β3(M286W+Q224W)): 1.1±0.1; d ([7]; α1β3(M286W+Q224W), KO/KC, MWC fit): 0.04±0.004"
CC(C)c1ccccc1O [2-isopropylphenol],unchanged,–,–,–,–,–,–,–,–,–,–,–,–,–,–,–,–,–,–,–,–
"CC(C)c1cccc(C(C)C)c1O [Propofol, 2,6-diisopropylphenol]",–,0.33±0.04,2.8±0.3,0.27±0.01,0.60±0.04,1.1±0.1,0.84±0.01,1,2.9±0.6,0.04±0.05,1,1.6±0.1,0.27±0.03,0.24±0.01,0.50±0.02,1.7±0.3,0.64±0.02,1.5±0.2,0.93±0.01,1,"EC50 [1]: 14 ± 0.7 µM; Kd [1]: 6 ± 1.4 µM; EC50 [2]: 6.6 ± 0.8 µM; Kd [2]: 5.7 ± 1.6 µM; EC50 [3]: 50 ± 2 µM; Kd [3]: 336 ± 435 µM; EC50 [4]: 12.8 ± 2.9 µM; Kd [4]: 23 ± 6 µM; EC50 (α1β3 GABAA receptor; EC50, wild-type α1β3, direct activation, mean ± S.E.M., at least 4 cells): 13 µM and 12.5 µM; EC50 [5]: 1.6 ± 0.2 µM; Kd [5]: 1.4 ± 0.3 µM; EC50 [6]: 5 ± 0.5 µM; Kd [6]: 13.1 ± 1.5 µM; nH [6]: 1.9±0.3; d [6]: 0.23±0.01; EC50 [7]: 69 ± 9 µM; Kd [7]: 61 ± 14 µM; Po,max^est [7]: 0.11±0.01; d [7]: 0.58±0.01; nH [7]: 1.9±0.1"
"CC(C)c1ccc(C2(C(F)(F)F)N=N2)cc1O [meta-azipropofol, 2-isopropyl-5-[3-(trifluoromethyl)-3H-diazirin-3-yl]phenol]",–,–,–,–,–,–,–,–,–,–,–,–,–,–,–,–,–,–,–,–,degree of potentiation (α1β2γ2L GABAA receptors): somewhat smaller degree of potentiation
